What all share (experiment): NCI-60 cell line screen, 48 h
In assay [1] the test system is A498.
Assay [2] relates to UACC-62.
The subject of assay [3] is NCI-H522.
In assay [4] the test system is SK-OV-3.
Assay [5] relates to U-251.
Assay [6] deals with SNB-19.
Assay [7] deals with SW-620.
Assay [8] relates to HCT-116.
The test system of assay [9] is LOX IMVI.
For assay [10], the system named is SK-MEL-2.
Assay [11] deals with OVCAR-5.
Assay [12] has as its system COLO 205.
Assay [13] deals with SK-MEL-5.
In assay [14] the test system is SNB-75.
The test system of assay [15] is SF-295.
Assay [16] concerns K562.
The test system of assay [17] is NCI/ADR-RES.
For assay [18], the system named is KM12.
In assay [19] the test system is HL-60.
The test system of assay [20] is OVCAR-3.

SMILES strings stand for the structures.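 Test compounds were applied to cells in 96-well plates for 48 hours at 5 doses. GI50 marks 50% less growth.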 Active and inactive are the calls of the source. No stated cut-off is given here; in the data, active = GI50 up to about 1.1 µM and inactive = higher. Non-standard residues stand in square brackets, D forms with d. Residues, ends and D or L forms follow the SMILES beside them.

In the case of `c1csc(C(NC2=NCCO2)C2CC2)c1` (stereo not drawn), the GI50 in [1], in assay [2], in [3], in [4], in assay [5] and in assay [6] was > 100 µM (inactive) in each case. Moreover, the GI50 in [7], in [8], in [9], in assay [10], in assay [11] and in [12] was > 100 µM (inactive) each time. Moreover, the GI50 in assay [13], in assay [14] and in assay [15] was > 100 µM (inactive) each time.

Regarding `COc1ccc(N2C(=O)/C(=C\c3ccccc3)SC2c2cc(OC)c(OC)c(OC)c2)cc1` (stereo not drawn), the GI50 in assay [16] was 28.5 µM (inactive); in [17], > 100 µM (inactive); in assay [1] it was 73.8 µM (inactive); in assay [2], 52.5 µM (inactive); in [3], 14.2 µM (inactive); in [4] it was 48.9 µM (inactive). Further, the GI50 in assay [5] is 43.9 µM (inactive); in assay [6], > 100 µM (inactive); in assay [8] it was 32.1 µM (inactive); in assay [9], 56.9 µM (inactive); in [10], 30.4 µM (inactive); in assay [11] it was > 100 µM (inactive). Further, the GI50 in assay [12] is 74.1 µM (inactive); in assay [18] it was 44.3 µM (inactive); in assay [13], 48.4 µM (inactive); in [14] it was 8.05 µM (inactive); in assay [15], > 100 µM (inactive).

Consider `CN(C)CCNc1c2ccccc2c2c3c(cccc13)C(=O)N(CCN(C)C)C2=O`, for which the GI50 in assay [16] was 0.0522 µM (active); in [17] it was 0.0627 µM (active); in [1], 0.641 µM (active); in assay [19] it was 0.229 µM (active); in assay [2] it was 0.308 µM (active); in assay [3], 0.123 µM (active). Moreover, the GI50 was 0.221 µM (active) in [4]; 0.121 µM (active) in assay [5]; 0.28 µM (active) in assay [6]; 0.0532 µM (active) in assay [7]; 0.0254 µM (active) in assay [8]; 0.071 µM (active) in [9]. The GI50 is 0.188 µM (active) in [10]; 0.224 µM (active) in [11]; 0.112 µM (active) in assay [20]; 0.0755 µM (active) in [12]; 0.232 µM (active) in assay [18]; 0.697 µM (active) in [13]. Moreover, the GI50 in [14] is 0.176 µM (active); in assay [15], 0.069 µM (active).

On to `COc1cc2c3c(c4cc(OC)c(OC)cc4c2cc1OC)C(=O)C1CCC(=O)N1C3` (stereo not drawn), for which the GI50 was 14 µM (inactive) in [16]; 94.4 µM (inactive) in assay [17]; 14.9 µM (inactive) in [1]; 41.3 µM (inactive) in assay [19]; 16.6 µM (inactive) in assay [2]; 3.1 µM (inactive) in assay [3]. Also, the GI50 in [4] was 14.2 µM (inactive); in [5] it was 26.3 µM (inactive); in assay [7] it was 15.5 µM (inactive); in assay [9], 24.9 µM (inactive); in [10] it was 41.9 µM (inactive); in assay [20] it was 20.6 µM (inactive). Moreover, the GI50 in assay [12] was 24.5 µM (inactive); in [18] it was 70.1 µM (inactive); in assay [13], 34 µM (inactive); in [14] it was 11.6 µM (inactive); in assay [15], 21.6 µM (inactive).

Turning to `CC1NC(=O)CC(c2ccccc2)N(N=O)C1c1ccccc1` (stereo not drawn), the GI50 in assay [16] is 28 µM (inactive); in assay [17], 25.2 µM (inactive); in [1], 8.89 µM (inactive); in assay [19] it was 24.8 µM (inactive); in [2] it was 35.4 µM (inactive); in assay [3], 22.1 µM (inactive). Besides, the GI50 was 22.8 µM (inactive) in [4]; 39.6 µM (inactive) in assay [5]; 40 µM (inactive) in assay [6]; 20.6 µM (inactive) in assay [7]; 37.1 µM (inactive) in [8]; 37.9 µM (inactive) in [9]. The GI50 is 39.5 µM (inactive) in [10]; > 100 µM (inactive) in [11]; 33.2 µM (inactive) in assay [20]; 26.6 µM (inactive) in [12]; 56.1 µM (inactive) in [18]; 28.6 µM (inactive) in [13]. Besides, the values for the GI50 in [14] and in [15] were 25.4 µM (inactive) and 30.7 µM (inactive), respectively.

`COc1ccc(/C=N/n2cnc3c(c2=O)S/C(=C2/SC(=S)N(c4ccc(C)cc4)C2=O)N3c2ccccc2)cc1`: the GI50 in [16] is > 10 µM (inactive); in assay [19] it was 58.5 µM (inactive); in assay [2] it was 17.4 µM (inactive); in [3] it was 52.4 µM (inactive); in assay [4] it was > 100 µM (inactive); in assay [6] it was 28.4 µM (inactive). Moreover, the GI50 is > 100 µM (inactive) in assay [7]; 56 µM (inactive) in assay [8]; > 100 µM (inactive) in [9]; 79.4 µM (inactive) in assay [10]; > 100 µM (inactive) in assay [11]; 29.9 µM (inactive) in assay [20]. The GI50 was > 100 µM (inactive) in assay [12], > 100 µM (inactive) in assay [18], > 100 µM (inactive) in [14] and 11.6 µM (inactive) in [15].

With `Oc1ccc(-c2nc3ccc(Br)cc3s2)cc1`, the GI50 in [16] was 23.5 µM (inactive); in assay [17] it was 18.1 µM (inactive); in assay [19] it was 17 µM (inactive); in assay [2], 13 µM (inactive); in assay [3], 10.7 µM (inactive); in [4], 19.5 µM (inactive). In addition, the GI50 in [5] was 20.4 µM (inactive); in assay [6], 23.3 µM (inactive); in assay [7] it was 32.2 µM (inactive); in [8], 20 µM (inactive); in [9] it was 15.5 µM (inactive); in assay [10], 17.9 µM (inactive). Besides, the GI50 in assay [11] is 24 µM (inactive); in assay [20], 14.3 µM (inactive); in assay [12], 15.9 µM (inactive); in [18] it was 14.7 µM (inactive); in assay [13], 13.5 µM (inactive); in assay [15], 17.6 µM (inactive).

On to `CC(C)C[C@H](NC(=O)[C@H](CC(C)C)NC(=O)[C@@H](Cc1c[nH]c2ccccc12)NC(=O)[C@H](Cc1ccccc1)NC(=O)[C@@H](Cc1c[nH]c2ccccc12)NC(=O)[C@H](CCC(N)=O)NC(=O)[C@H](CCC(N)=O)NC(=O)[C@H]1CCCN1C(=O)[C@@H](N)CCCCN)C(N)=O` (H-K[dP]QQ[dW]F[dW]LL-NH2), for which the GI50 in [16], in [17], in assay [1], in assay [19], in assay [2] and in assay [3] was > 100 µM (inactive) throughout. The GI50 in assay [4], in assay [5], in assay [6], in assay [7], in assay [8] and in [9] was > 100 µM (inactive) in each case. The GI50 in assay [10], in [11], in [20], in assay [12], in assay [18] and in [13] was > 100 µM (inactive) each time. In addition, the GI50 in assay [14] and in assay [15] was > 100 µM (inactive) in each case.
